The target in the experiment is T1, human RXFP1 (Homo sapiens, UniProt Q9HBX9).
T1 construct: expressed in transfected cells
T1 sequence (Q9HBX9 1-757): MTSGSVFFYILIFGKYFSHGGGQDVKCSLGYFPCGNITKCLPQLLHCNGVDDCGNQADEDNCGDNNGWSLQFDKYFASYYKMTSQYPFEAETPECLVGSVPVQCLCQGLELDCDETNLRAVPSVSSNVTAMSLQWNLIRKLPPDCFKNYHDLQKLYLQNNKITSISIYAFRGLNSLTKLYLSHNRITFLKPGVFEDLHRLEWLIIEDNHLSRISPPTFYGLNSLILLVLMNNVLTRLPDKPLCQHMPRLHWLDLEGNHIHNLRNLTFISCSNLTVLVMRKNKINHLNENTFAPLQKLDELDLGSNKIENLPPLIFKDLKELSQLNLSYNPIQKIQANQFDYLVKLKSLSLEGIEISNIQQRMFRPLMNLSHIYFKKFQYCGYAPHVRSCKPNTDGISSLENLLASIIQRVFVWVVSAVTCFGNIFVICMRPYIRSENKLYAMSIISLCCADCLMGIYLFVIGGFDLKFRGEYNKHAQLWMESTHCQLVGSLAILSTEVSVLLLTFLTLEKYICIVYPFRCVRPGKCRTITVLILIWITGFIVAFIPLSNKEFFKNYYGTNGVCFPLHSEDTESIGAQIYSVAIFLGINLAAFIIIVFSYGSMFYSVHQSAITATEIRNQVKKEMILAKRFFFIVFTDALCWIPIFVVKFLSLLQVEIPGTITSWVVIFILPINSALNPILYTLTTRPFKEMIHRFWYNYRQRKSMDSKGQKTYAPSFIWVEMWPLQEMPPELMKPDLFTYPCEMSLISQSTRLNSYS
Description: RXFP1 cAMP assay (hRXFP1 HEK293 cAMP assay, HTRF). As to conditions: HEK293 cells stably expressing human RXFP1, 30 min at room temperature, read-out: cAMP hRXFP1 HEK293 Assay EC50. Type of experiment: cell-based. Summed up: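 HEK293 cells stably expressing human RXFP1 (1500 cells/well) in HBSS/20 mM HEPES/0.05% BSA/0.5 mM IBMX. Compounds were tested at 0.010 nM–50 μM final (2% DMSO) for 30 min at room temperature. cAMP was measured by HTRF and values derived by 4-parameter logistic fit.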
Background: Cyclic AMP is a second messenger, typically raised through Gs and lowered through Gi signalling.

For orientation: EC50 means the concentration that produces a half-maximal response.

Regarding `COc1ccc(-c2cnn3c2CC(O)CC3)cc1C(=O)N[C@H]1[C@@H](C(=O)N[C@@H](C)C2(C)CC2)[C@H]2CC[C@@H]1/C2=C\C1CC1` (stereo partly drawn) [compound 871], the EC50 was found to be 4.8 nM. Under `COc1ccc(C2=NOC3CC(OC)CC23)cc1C(=O)N[C@@H]1C2CCC(/C2=C/C2CC2)[C@@H]1C(=O)Nc1ccc(F)c(C(F)(F)F)c1` (stereo partly drawn) [compound 867] stands 3.7 nM; under `COc1ccc(-c2cc(C(=O)N3CCC(O)CC3)on2)cc1C(=O)N[C@H]1[C@@H](C(=O)Nc2ccc(F)c(C(F)(F)F)c2)[C@H]2CC[C@@H]1/C2=C\C1CC1` [Example 594], 91.4 nM; under `COc1ccc(-c2cnc3n2CC(O)CC3)cc1C(=O)N[C@H]1[C@@H](C(=O)Nc2ccc(F)c(C(F)(F)F)c2)[C@H]2CC[C@@H]1/C2=C\C1CC1` (stereo partly drawn) [compound 752], 2.5 nM. Turning to `COc1ccc(C2=NOC3COCC23)cc1C(=O)N[C@H]1[C@@H](C(=O)N[C@H](CF)C2(C)CC2)[C@H]2CC[C@@H]1/C2=C\C1CC1` (stereo partly drawn) [compound 771], the EC50 was 3.8 nM.

With `CNC(=O)OC(c1ccc(F)c(-c2ccc(OC)c(C(=O)N[C@@H]3C4CCC(/C4=C/C4CC4)[C@@H]3C(=O)Nc3ccc(F)c(C(F)(F)F)c3)c2)c1)C(F)(F)F` (stereo partly drawn) [compound 212], the half-maximal effective concentration (EC50) came out at 1 nM. Consider `COc1ccc(C2=CCCN(CC(=O)O)C2)cc1C(=O)N[C@H]1[C@@H](C(=O)Nc2ccc(F)c(C(F)(F)F)c2)[C@H]2CC[C@@H]1/C2=C\C1CC1` [Example 259, 2-(5-(3-(((1R,2R,3S,4R,Z)-7-(cyclopropylmethylene)-3-((4-fluoro-3-(trifluoromethyl)phenyl)carbamoyl)bicyclo[2.2.1]heptan-2-yl)carbamoyl)-4-methoxyphenyl)-3,6-dihydropyridin-1(2H)-yl)acetic acid], for which the EC50 amounted to 815 nM. As for `COC(=O)N1CC2ON=C(c3ccc(OC)c(C(=O)N[C@H]4[C@@H](C(=O)Nc5ccc(F)c(C(F)(F)F)c5)[C@H]5CC[C@@H]4/C5=C\C4CC4)c3)C2C1` (stereo partly drawn) [Example 438, methyl 3-(3-(((1R,2R,3S,4R,Z)-7-(cyclopropylmethylene)-3-((4-fluoro-3-(trifluoromethyl)phenyl)carbamoyl)bicyclo[2.2.1]heptan-2-yl)carbamoyl)-4-methoxyphenyl)-3a,4,6,6a-tetrahydro-5H-pyrrolo[3,4-d]isoxazole-5-carboxylate], the EC50 was 24 nM. On to `COc1ccc(-c2cc(C(OC(=O)NC3CCCC3)C(F)(F)F)ccc2F)cc1C(=O)N[C@@H]1C2CCC(/C2=C/C2CC2)[C@@H]1C(=O)Nc1ccc(F)c(C(F)(F)F)c1` (stereo partly drawn) [compound 219], for which the EC50 was determined as 3 nM. Regarding `COc1ccc(C2=NOC3C(O)CCC23)cc1C(=O)N[C@H]1[C@@H](C(=O)Nc2ccc(F)c(C(F)(F)F)c2)[C@H]2CC[C@@H]1/C2=C\C1CC1` (single isomer, unassigned) [compound 706], the EC50 came out at 1300 nM. In the case of `COc1ccc(C2=NOC3COCC23)cc1C(=O)N[C@H]1[C@@H](C(=O)NCC2CCCC2)[C@H]2CC[C@@H]1/C2=C\C1CC1` (stereo partly drawn) [compound 592], the EC50 is 87.1 nM. The same measure for `COc1cc(F)c(F)cc1C(=O)N[C@@H]1C2CCC(/C2=C\Br)[C@@H]1C(=O)Nc1ccc(F)c(C(F)(F)F)c1` (stereo partly drawn) [compound 10]: 1100 nM. Under `COc1ccc(N2CCCC(C(=O)O)C2)cc1C(=O)N[C@@H]1C2CCC(C2=C(C)C)[C@@H]1C(=O)Nc1ccc(F)c(C(F)(F)F)c1` (stereo partly drawn) [compound 142] stands 2900 nM. Under `COc1ccc(-c2cc(C(COC(=O)NC3CCC3)C(F)(F)F)ccc2F)cc1C(=O)N[C@H]1[C@@H](C(=O)Nc2ccc(F)c(C(F)(F)F)c2)[C@H]2CC[C@@H]1/C2=C\C1CC1` (stereo partly drawn) [compound 879] stands 0.9 nM; under `COc1ccc(-c2cc(C3=NOC(C(=O)O)C3)ccc2F)cc1C(=O)N[C@H]1[C@@H](C(=O)Nc2ccc(F)c(C(F)(F)F)c2)[C@H]2CC[C@@H]1/C2=C\C1CCCC1` (stereo partly drawn) [compound 945], 5.4 nM. As for `COc1c(Cl)cc(C2=NOC3CC(CO)CC23)cc1C(=O)N[C@H]1[C@@H](C(=O)Nc2ccc(F)c(C(F)(F)F)c2)[C@H]2CC[C@@H]1/C2=C\C1CC1` (stereo partly drawn) [compound 798], the EC50 came out at 4.7 nM. With `COc1ccc(C23COC(C(=O)O)(C2)C3)cc1C(=O)N[C@H]1[C@@H](C(=O)Nc2ccc(F)c(C(F)(F)F)c2)[C@H]2CC[C@@H]1/C2=C\C(F)(F)F` [Example 724, 4-(3-(((1R,2R,3S,4R,Z)-3-((4-fluoro-3-(trifluoromethyl)phenyl)carbamoyl)-7-(2,2,2-trifluoroethylidene)bicyclo[2.2.1]heptan-2-yl)carbamoyl)-4-methoxyphenyl)-2-oxabicyclo[2.1.1]hexane-1-carboxylic acid], the EC50 is 5000 nM.

On to `COc1ccc(-c2cc(C(=O)O)ccc2F)cc1C(=O)N[C@@H]1C2CCC(/C2=C/C2CC2)[C@@H]1C(=O)NC1CCC1` (stereo partly drawn) [compound 202], for which the EC50 came out at 180 nM. For the compound `COc1ccc([C@@]2(O)CO[C@@H]3[C@@H](O)CO[C@@H]32)cc1C(=O)N[C@H]1[C@@H](C(=O)Nc2ccc(F)c(C(F)(F)F)c2)[C@H]2CC[C@@H]1/C2=C\C1CC1` [compound 700], the EC50 stood at 1050 nM. For `COc1ccc(C2CC3CN(C(=O)OC(C)(C)C)CC32)cc1C(=O)N[C@H]1[C@@H](C(=O)Nc2ccc(F)c(C(F)(F)F)c2)[C@H]2CC[C@@H]1/C2=C\C1CC1` (single isomer, unassigned) [compound 731], the EC50 was found to be 10 nM.

As to `COc1ccc(C2=NOC3COCC23)cc1C(=O)N[C@H]1[C@@H](C(=O)NCCC2CCC2)[C@H]2CC[C@@H]1/C2=C\C1CC1` (stereo partly drawn) [compound 648], the EC50 was determined as 242 nM. Under `COc1ccc(C2=NOC(C(=O)O)C2)cc1C(=O)N[C@@H]1C2CCC(/C2=C/C2CC2)[C@@H]1C(=O)Nc1ccc(F)c(C(F)(F)F)c1` (single isomer, unassigned) [Example 385] stands 8 nM; under `COc1cc(F)c(F)cc1C(=O)N[C@@H]1C2CCC(/C2=C/c2ccc(F)cc2)[C@@H]1C(=O)Nc1ccc(F)c(C(F)(F)F)c1` (stereo partly drawn) [compound 41], 27 nM.

Turning to `COc1ccc(-c2cc(C(OC(=O)NC3CCC3)C(=O)O)ccc2F)cc1C(=O)N[C@H]1[C@@H](C(=O)Nc2ccc(F)c(C(F)(F)F)c2)[C@H]2CC[C@@H]1/C2=C\C1CC(F)(F)C1` (stereo partly drawn) [compound 939], the EC50 turned out to be 0.6 nM.

On to `COc1ccc(N2CCC(NC(=O)C3CCOCC3)C2)cc1C(=O)N[C@@H]1C2CCC(/C2=C/C(F)(F)F)[C@@H]1C(=O)Nc1ccc(F)c(C(F)(F)F)c1` (single isomer, unassigned) [compound 337], for which the EC50 amounted to 2080 nM. Consider `CNC(=O)c1ccc(F)c(-c2ccc(OC)c(C(=O)N[C@@H]3C4CCC(/C4=C/c4cnoc4)[C@@H]3C(=O)Nc3ccc(F)c(C(F)(F)F)c3)c2)c1` (stereo partly drawn) [compound 165], for which the EC50 amounted to 40 nM. As for `COc1ccc(C2=NOC(CCO)C2)cc1C(=O)N[C@@H]1C2CCC(/C2=C/C2CC2)[C@@H]1C(=O)Nc1ccc(F)c(C(F)(F)F)c1` (stereo partly drawn) [compound 398], the EC50 came out at 37 nM. For the compound `COc1ccc(C2=NO[C@H]3C[C@H](CO)CN23)cc1C(=O)N[C@H]1[C@@H](C(=O)Nc2ccc(F)c(C(F)(F)F)c2)[C@H]2CC[C@@H]1/C2=C\C1CC1` [compound 854], the EC50 was 3.9 nM. For `COc1ccc(-c2ccc(CC(=O)O)cc2)cc1C(=O)N[C@@H]1C2CCC(/C2=C/c2cnoc2)[C@@H]1C(=O)Nc1ccc(F)c(C(F)(F)F)c1` (stereo partly drawn) [compound 188], the EC50 is 20 nM. For `CCC(CC)NC(=O)[C@@H]1[C@H](NC(=O)c2cc(C3=NOC4COCC34)ccc2OC)[C@@H]2CC[C@H]1/C2=C/C1CC1` (stereo partly drawn) [compound 611], the EC50 was determined as 133 nM. For the compound `COc1ccc(C2=NOC(COCCO)C2)cc1C(=O)N[C@H]1[C@@H](C(=O)Nc2ccc(F)c(C(F)(F)F)c2)[C@H]2CC[C@@H]1/C2=C\C1CC1` (stereo partly drawn) [compound 546], the EC50 worked out at 32.1 nM. With `COc1cc(F)c(F)cc1C(=O)N[C@@H]1C2CCC(/C2=C/C(=O)OCc2ccccc2)[C@@H]1C(=O)Nc1ccc(F)c(C(F)(F)F)c1` (stereo partly drawn) [compound 9], the EC50 was found to be 310 nM.

For `COc1ccc(-c2cccnc2F)cc1C(=O)N[C@H]1[C@@H](C(=O)Nc2ccc(F)c(C(F)(F)F)c2)[C@H]2CC[C@@H]1C2=C(C)C` [compound 102], the concentration giving a half-maximal response (EC50) turned out to be 590 nM. Take `COc1ccc(-c2cccc3c2CN(C(=O)C2CCC2)C3)cc1C(=O)N[C@@H]1C2CCC(/C2=C/C2CC2)[C@@H]1C(=O)Nc1ccc(F)c(C(F)(F)F)c1` (stereo partly drawn) [compound 872]: the EC50 is 8 nM. Under `COc1ccc(-c2cc(C3=NOC(CO)C3)ccc2F)cc1C(=O)N[C@H]1[C@@H](C(=O)Nc2ccc(F)c(C(F)(F)F)c2)[C@H]2CC[C@@H]1/C2=C\C1CC1` (stereo partly drawn) [compound 906] stands 6.8 nM; under `COc1ccc(C2=NOC3COCC23)cc1C(=O)N[C@H]1[C@@H](C(=O)NC2CC3(C2)CC(F)(F)C3)[C@H]2CC[C@@H]1/C2=C\C1CC1` (stereo partly drawn) [compound 605], 118 nM.

These data come from patent publication US20250221966A1, “RXFP1 AGONISTS” (BRISTOL-MYERS SQUIBB COMPANY, priority 2021, published 2025).
